{
  "source": "paper PMC2408963",
  "about": "“A Detailed Analysis of the Murine TAP Transporter Substrate Specificity” (PLoS ONE, 2008)",
  "key": {"[1]": {"tested_on": "human TAP complexes", "assay": "Fluorescence polarization assay with insect cell-expressed human TAP", "format": "binding"}, "[2]": {"tested_on": "murine TAP1 or TAP2 protein alone", "excerpt": "Using the same insect cell system for TAP expression, a novel assay was established which is based on detecting fluorescence polarization rather than the activity of a radioactive tracer. […] To establish a fluorescence polarization assay, we determined the concentrations of reporter peptide and microsomes yielding the highest specific binding signal (mP reading)."}},
  "note": "Where no end group is shown, it is not given here.",
  "data": [
    {"substance": "R9L-FITC: reporter peptide in which position 6 (Ser) of R9L was substituted by a Cys residue coupled to a fluorescein group (RRYNAC(fluorescein)TEL)", "values": [
      {"measurement": "affinity for human TAP compared with murine TAP", "setting": "[1]", "result": "identical affinity"},
      {"measurement": "binding to microsomes containing either murine TAP1 or TAP2 protein alone", "setting": "[2]", "result": "did not bind"}
    ]}
  ]
}
